US5530126A, “Process for the preparation of substituted 6-(pyrazol-3yl)-1,4-benzoxazin-3-ones” (Monsanto Company, priority 1994, dated 1996)

How the values were obtained:
Type in all cases: in vivo
Annual bluegrass [1] = experiment: Pre-emergence herbicide test; details: read-out: % plant inhibition (Anbg); for inhibition at 11210 g/ha: 11.21 kg/ha
Description: (§1) The tests for pre-emergence herbicide activity are conducted as follows:
(§2) Topsoil is placed in an aluminum pan and compacted to a depth of 0.95 to 1.27 cm from the top of the pan. On the top of the soil is placed a predetermined number of seeds of each of several monocotyledonous and dicotyledonous annual plant species and/or vegetative propagules of various perennial plant species. A known amount of the active ingredient dissolved or suspended in an organic solvent, e.g., acetone, or water as carrier is then applied directly to the seed bed, which is then covered with a layer of untreated topsoil to level fill the pan. After treatment, the pans are moved to a greenhouse bench where they are watered from below as needed to give adequate moisture for germination and growth.
(§3) Approximately 10-14 days (usually 11 days) after seeding and treating, the pans are observed and the results (% inhibition) are recorded.
(§4) Tables 7 and 7A below summarize the results of the pre-emergence herbicidal activity tests of compounds of this invention in weeds. The herbicidal rating shown in these tables is the percent inhibition of each plant species. The plant species usually regarded as weeds which are utilized in one set of tests, the data for which are shown in the tables, are identified by letter headings above the columns in accordance with the following legend: […]

Seedling johnsongrass [2] = experiment: Pre-emergence herbicide test; details: Sorghum halepense, read-out: % plant inhibition (Sejg); for inhibition at 11210 g/ha: 11.21 kg/ha
Description: as §1, §2, §3, §4

Cocklebur [3] = experiment: Pre-emergence herbicide test; details: Xanthium strumarium, read-out: % plant inhibition (Cobu); for inhibition at 11210 g/ha: 11.21 kg/ha
Description: as §1, §2, §3, §4

Morningglory [4] = experiment: Pre-emergence herbicide test; details: Ipomoea, read-out: % plant inhibition (Mogl); for inhibition at 11210 g/ha: 11.21 kg/ha
Description: as §1, §2, §3, §4

Barnyardgrass [5] = experiment: Pre-emergence herbicide test; details: Echinochloa crus-galli, read-out: % plant inhibition (Bygr); for inhibition at 11210 g/ha: 11.21 kg/ha
Description: as §1, §2, §3, §4

Wild buckwheat [6] = experiment: Pre-emergence herbicide test; details: Fallopia convolvulus, read-out: % plant inhibition (Wibw); for inhibition at 11210 g/ha: 11.21 kg/ha
Description: as §1, §2, §3, §4

Downy Brome [7] = experiment: Pre-emergence herbicide test; details: Bromus tectorum, read-out: % plant inhibition (Dobr); for inhibition at 11210 g/ha: 11.21 kg/ha
Description: as §1, §2, §3, §4

Yellow nutsedge [8] = experiment: Pre-emergence herbicide test; details: Cyperus, read-out: % plant inhibition (Yens); for inhibition at 11210 g/ha: 11.21 kg/ha
Description: as §1, §2, §3, §4

Velvetleaf [9] = experiment: Pre-emergence herbicide test; details: Abutilon theophrasti, read-out: % plant inhibition (Vele); for inhibition at 11210 g/ha: 11.21 kg/ha
Description: as §1, §2, §3, §4

Indian Mustard [10] = experiment: Pre-emergence herbicide test; details: Brassica juncea, read-out: % plant inhibition (Inmu); for inhibition at 11210 g/ha: 11.21 kg/ha
Description: as §1, §2, §3, §4

Annual bluegrass [11] = experiment: Post-emergence herbicide test; details: read-out: % plant inhibition (Anbg); for inhibition at 11210 g/ha: 11.21 kg/ha
From the text: (§5) Topsoil is placed in aluminum pans having holes in the bottom and compacted to a depth of 0.95 to 1.27 cm from the top of the pan. A predetermined number of seeds of each of several dicotyledonous and monocotyledonous annual plant species and/or vegetative propagules for the perennial plant species are placed on the soil and pressed into the soil surface. The seeds and/or vegetative propagules are covered with soil and leveled. The pans are then placed on a bench in the greenhouse and watered from below as needed. After the plants reach the desired age (two to three weeks), each pan, is removed individually to a spraying chamber and sprayed by means of an atomizer, operating at a spray pressure of 170.3 kPa (10 psig) at the application rates noted. In the spray solution is an amount of an emulsifying agent mixture to give a spray solution or suspension which contains about 0.4% by volume of the emulsifier. The spray solution or suspension contains a sufficient amount of the candidate chemical in order to give application rates of the active ingredient corresponding to those shown in Tables 8 and 8A, while applying a total amount of solution or suspension equivalent to 1870 L/Ha (200 gallons/acre). The pans were returned to the greenhouse and watered as before and the injury to the plants as compared to the control is observed at approximately 10-14 days (usually 11 days) and in some instances observed again at 24-28 days (usually 25 days) after spraying. The post-emergent herbicidal activity shown in these tables is the percent inhibition of each plant species.

Seedling johnsongrass [12] = experiment: Post-emergence herbicide test; details: Sorghum halepense, read-out: % plant inhibition (Sejg); for inhibition at 11210 g/ha: 11.21 kg/ha
From the text: as §5

Cocklebur [13] = experiment: Post-emergence herbicide test; details: Xanthium strumarium, read-out: % plant inhibition (Cobu); for inhibition at 11210 g/ha: 11.21 kg/ha
From the text: as §5

Morningglory [14] = experiment: Post-emergence herbicide test; details: Ipomoea, read-out: % plant inhibition (Mogl); for inhibition at 11210 g/ha: 11.21 kg/ha
From the text: as §5

Barnyardgrass [15] = experiment: Post-emergence herbicide test; details: Echinochloa crus-galli, read-out: % plant inhibition (Bygr); for inhibition at 11210 g/ha: 11.21 kg/ha
From the text: as §5

Wild buckwheat [16] = experiment: Post-emergence herbicide test; details: Fallopia convolvulus, read-out: % plant inhibition (Wibw); for inhibition at 11210 g/ha: 11.21 kg/ha
From the text: as §5

Downy Brome [17] = experiment: Post-emergence herbicide test; details: Bromus tectorum, read-out: % plant inhibition (Dobr); for inhibition at 11210 g/ha: 11.21 kg/ha
From the text: as §5

Yellow nutsedge [18] = experiment: Post-emergence herbicide test; details: Cyperus, read-out: % plant inhibition (Yens); for inhibition at 11210 g/ha: 11.21 kg/ha
From the text: as §5

Velvetleaf [19] = experiment: Post-emergence herbicide test; details: Abutilon theophrasti, read-out: % plant inhibition (Vele); for inhibition at 11210 g/ha: 11.21 kg/ha
From the text: as §5

Indian Mustard [20] = experiment: Post-emergence herbicide test; details: Brassica juncea, read-out: % plant inhibition (Inmu); for inhibition at 11210 g/ha: 11.21 kg/ha
From the text: as §5

Row | Structure (SMILES) | inhibition at 11210 g/ha (Annual bluegrass [1]) | inhibition at 11210 g/ha (Seedling johnsongrass [2]) | inhibition at 11210 g/ha (Cocklebur [3]) | inhibition at 11210 g/ha (Morningglory [4]) | inhibition at 11210 g/ha (Barnyardgrass [5]) | inhibition at 11210 g/ha (Wild buckwheat [6]) | inhibition at 11210 g/ha (Downy Brome [7]) | inhibition at 11210 g/ha (Yellow nutsedge [8]) | inhibition at 11210 g/ha (Velvetleaf [9]) | inhibition at 11210 g/ha (Indian Mustard [10]) | inhibition at 11210 g/ha (Annual bluegrass [11]) | inhibition at 11210 g/ha (Seedling johnsongrass [12]) | inhibition at 11210 g/ha (Cocklebur [13]) | inhibition at 11210 g/ha (Morningglory [14]) | inhibition at 11210 g/ha (Barnyardgrass [15]) | inhibition at 11210 g/ha (Wild buckwheat [16]) | inhibition at 11210 g/ha (Downy Brome [17]) | inhibition at 11210 g/ha (Yellow nutsedge [18]) | inhibition at 11210 g/ha (Velvetleaf [19]) | inhibition at 11210 g/ha (Indian Mustard [20]) | further results
1 | Cn1nc(C(F)(F)F)c(Cl)c1-c1ccc(F)cc1F [Compound 75] | 0% | 50% | 10% | 90% | 20% | 50% | 20% | 20% | 80% | 30% | 0% | 0% | 0% | 10% | 0% | 60% | 0% | 0% | 0% | 0% | 
2 | C#CCOc1cc(-c2c(Cl)c(C(F)(F)F)nn2C)c(F)cc1Cl [Compound 76] |  |  |  |  |  |  |  |  |  |  |  |  |  |  |  |  |  |  |  |  | inhibition at 1120 g/ha (Annual bluegrass [1]; 1.12 kg/ha): 10%; inhibition at 1120 g/ha (Seedling johnsongrass [2]; 1.12 kg/ha): 0%; inhibition at 1120 g/ha (Cocklebur [3]; 1.12 kg/ha): 20%; inhibition at 1120 g/ha (Morningglory [4]; 1.12 kg/ha): 40%; inhibition at 1120 g/ha (Barnyardgrass [5]; 1.12 kg/ha): 0%; inhibition at 1120 g/ha (Wild buckwheat [6]; 1.12 kg/ha): 100%; inhibition at 1120 g/ha (Downy Brome [7]; 1.12 kg/ha): 10%; inhibition at 1120 g/ha (Yellow nutsedge [8]; 1.12 kg/ha): 0%; inhibition at 1120 g/ha (Velvetleaf [9]; 1.12 kg/ha): 50%; inhibition at 1120 g/ha (Indian Mustard [10]; 1.12 kg/ha): 60%; inhibition at 1120 g/ha (Annual bluegrass [11]; 1.12 kg/ha): 40%; inhibition at 1120 g/ha (Seedling johnsongrass [12]; 1.12 kg/ha): 40%; inhibition at 1120 g/ha (Cocklebur [13]; 1.12 kg/ha): 40%; inhibition at 1120 g/ha (Morningglory [14]; 1.12 kg/ha): 50%; inhibition at 1120 g/ha (Barnyardgrass [15]; 1.12 kg/ha): 50%; inhibition at 1120 g/ha (Wild buckwheat [16]; 1.12 kg/ha): 100%; inhibition at 1120 g/ha (Downy Brome [17]; 1.12 kg/ha): 30%; inhibition at 1120 g/ha (Yellow nutsedge [18]; 1.12 kg/ha): 10%; inhibition at 1120 g/ha (Velvetleaf [19]; 1.12 kg/ha): 90%; inhibition at 1120 g/ha (Indian Mustard [20]; 1.12 kg/ha): 70%
3 | Cn1nc(C(F)(F)F)c(Cl)c1-c1cc([N+](=O)[O-])c(F)cc1F [Compound 77] | 80% | 40% | 0% | 0% | 30% | 20% | 10% | 0% | 30% | 30% | 20% | 20% | 20% | 10% | 20% | 60% | 0% | 0% | 30% | 60% | 
4 | COc1cc(F)c(-c2c(Cl)c(C(F)(F)F)nn2C)cc1[N+](=O)[O-] [Compound 78] | 0% | 0% | 0% | 0% | 0% | 0% | 0% | 0% | 0% | 0% | 0% | 10% | 10% | 10% | 0% | 30% | 10% | 0% | 40% | 40% | 
5 | Cn1nc(C(F)(F)F)c(Cl)c1-c1ccc(Cl)cc1F [Compound 79] | 90% | 80% | 30% | 100% | 80% | 100% | 80% | 20% | 100% | 100% | 60% | 30% | 20% | 60% | 20% | 100% | 20% | 10% | 100% | 90% | 
6 | Cn1nc(-c2ccc([N+](=O)[O-])cc2)c(Cl)c1C(F)(F)F [Compound 81] | 60% | 90% | 20% | 30% | 60% | 100% | 80% | 0% | 90% | 20% | 0% | 70% | 40% | 60% | 70% | 90% | 10% | 50% | 80% | 10% | 
7 | Cn1nc(-c2ccc(Cl)cc2)c(Cl)c1C(F)(F)F [Compound 82] | 60% | 100% | 40% | 100% | 100% | 100% | 100% | 30% | 100% | 80% | 0% | 40% | 0% | 90% | 30% | 60% | 20% | 10% | 20% | 30% | 
8 | Cn1nc(-c2ccc(Cl)cc2)c(Cl)c1C(F)(F)Cl [Compound 83] | 40% | 100% | 40% | 30% | 60% | 90% | 90% | 20% | 90% | 60% | 0% | 60% | 70% | 80% | 40% | 100% | 40% | 20% | 100% | 90% | 
